The values that follow come from ChEMBL document CHEMBL1909046, “DrugMatrix in vitro pharmacology data”.

For one assay, the target named is Melanocortin receptor 5 (Homo sapiens, UniProt P33032). The class given is cell membranes, HEK293, Membrane. To be noted: hek293. Also: in other assays of this panel Not Active means under 50% inhibition at 10 µM.
Assay [1] is described as follows: DRUGMATRIX: Interleukin IL-1 radioligand binding (ligand: [125I] interleukin 1beta). In kind it is cell membranes, Membrane. Conditions: nih3t3; Not Active = under 50% inhibition at 10 µM.
In assay [2] the target is Mitogen-activated protein kinase 14 (Homo sapiens, UniProt Q16539). The arrangement: species or system Escherichia coli.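 Also: inhibition of p38alpha enzyme activity in a biochemical kinase assay, with myelin basic protein serving as substrate; in other assays of this panel Not Active means under 50% inhibition at 10 µM.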
Sequence of Mitogen-activated protein kinase 14 (Q16539 whole entry): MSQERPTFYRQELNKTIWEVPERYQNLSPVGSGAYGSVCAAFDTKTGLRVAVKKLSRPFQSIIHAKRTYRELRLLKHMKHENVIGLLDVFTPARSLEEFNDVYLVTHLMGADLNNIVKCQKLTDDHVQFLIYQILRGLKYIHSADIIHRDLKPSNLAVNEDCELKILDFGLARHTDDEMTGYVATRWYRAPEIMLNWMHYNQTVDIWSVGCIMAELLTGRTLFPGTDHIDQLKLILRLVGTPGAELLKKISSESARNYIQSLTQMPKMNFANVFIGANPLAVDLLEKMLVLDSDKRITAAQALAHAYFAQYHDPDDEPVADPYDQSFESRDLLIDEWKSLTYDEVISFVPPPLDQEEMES
Assay [3] addresses T1, Angiotensin-converting enzyme (Oryctolagus cuniculus, UniProt P12822).
T1 sequence (P12822 whole entry): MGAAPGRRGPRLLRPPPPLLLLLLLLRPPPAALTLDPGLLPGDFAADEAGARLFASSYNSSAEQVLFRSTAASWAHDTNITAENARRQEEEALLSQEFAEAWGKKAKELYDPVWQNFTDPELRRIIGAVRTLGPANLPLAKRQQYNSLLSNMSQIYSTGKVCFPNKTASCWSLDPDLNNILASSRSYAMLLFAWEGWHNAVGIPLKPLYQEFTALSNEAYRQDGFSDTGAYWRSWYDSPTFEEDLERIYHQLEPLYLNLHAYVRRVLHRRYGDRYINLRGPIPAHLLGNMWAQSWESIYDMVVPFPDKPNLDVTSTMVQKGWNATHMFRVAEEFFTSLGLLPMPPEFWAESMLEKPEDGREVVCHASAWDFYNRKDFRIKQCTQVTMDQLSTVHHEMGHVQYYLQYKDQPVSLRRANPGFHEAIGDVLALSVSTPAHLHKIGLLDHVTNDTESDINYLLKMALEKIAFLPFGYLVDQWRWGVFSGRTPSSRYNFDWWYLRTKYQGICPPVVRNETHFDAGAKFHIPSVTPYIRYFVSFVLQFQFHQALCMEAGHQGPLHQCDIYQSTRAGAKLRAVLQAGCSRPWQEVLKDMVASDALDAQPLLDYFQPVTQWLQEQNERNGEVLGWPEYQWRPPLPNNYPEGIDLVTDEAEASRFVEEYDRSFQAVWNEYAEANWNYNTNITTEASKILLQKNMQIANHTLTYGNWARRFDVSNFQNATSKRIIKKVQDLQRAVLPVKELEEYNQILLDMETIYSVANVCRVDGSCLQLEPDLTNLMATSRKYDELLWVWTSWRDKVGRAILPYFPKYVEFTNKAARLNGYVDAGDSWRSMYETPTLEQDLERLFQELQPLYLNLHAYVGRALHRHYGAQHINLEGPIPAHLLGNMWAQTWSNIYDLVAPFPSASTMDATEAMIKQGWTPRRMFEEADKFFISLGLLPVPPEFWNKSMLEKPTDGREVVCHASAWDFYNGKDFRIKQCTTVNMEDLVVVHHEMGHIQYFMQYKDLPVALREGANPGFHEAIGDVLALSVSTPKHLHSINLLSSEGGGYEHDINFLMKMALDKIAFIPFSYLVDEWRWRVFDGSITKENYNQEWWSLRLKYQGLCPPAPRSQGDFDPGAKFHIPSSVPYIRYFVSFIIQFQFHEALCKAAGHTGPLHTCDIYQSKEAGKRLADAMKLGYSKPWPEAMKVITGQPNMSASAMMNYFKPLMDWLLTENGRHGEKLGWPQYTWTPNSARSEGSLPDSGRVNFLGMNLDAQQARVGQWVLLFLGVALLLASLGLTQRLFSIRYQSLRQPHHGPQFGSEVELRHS
In kind it is tissue-based, Lung.

A further assay has as its target T2, Interstitial collagenase (Homo sapiens, UniProt P03956).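 Also: MMP-1 enzyme inhibition assay using a peptide substrate; in other assays of this panel Not Active means under 50% inhibition at 10 µM.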
T2 sequence (P03956 whole entry): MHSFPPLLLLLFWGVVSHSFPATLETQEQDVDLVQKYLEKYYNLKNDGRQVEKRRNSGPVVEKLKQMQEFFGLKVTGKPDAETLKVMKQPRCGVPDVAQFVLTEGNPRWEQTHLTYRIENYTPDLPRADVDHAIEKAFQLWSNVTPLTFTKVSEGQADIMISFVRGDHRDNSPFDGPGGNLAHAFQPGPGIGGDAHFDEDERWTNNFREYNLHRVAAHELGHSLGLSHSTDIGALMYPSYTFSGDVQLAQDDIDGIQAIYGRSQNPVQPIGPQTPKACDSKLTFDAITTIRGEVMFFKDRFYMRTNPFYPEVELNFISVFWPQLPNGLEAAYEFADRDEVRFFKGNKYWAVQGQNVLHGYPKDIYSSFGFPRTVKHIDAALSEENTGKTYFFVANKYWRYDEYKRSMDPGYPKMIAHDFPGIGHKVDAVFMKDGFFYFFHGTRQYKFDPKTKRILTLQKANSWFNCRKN
In words: biochemical. The class given is tissue-based, Rheumatoid synovial fibroblasts.

The target of assay [4] is T3, Cholecystokinin receptor type A (Homo sapiens, UniProt P32238). Also: in other assays of this panel Not Active means under 50% inhibition at 10 µM.
T3 sequence (P32238 whole entry): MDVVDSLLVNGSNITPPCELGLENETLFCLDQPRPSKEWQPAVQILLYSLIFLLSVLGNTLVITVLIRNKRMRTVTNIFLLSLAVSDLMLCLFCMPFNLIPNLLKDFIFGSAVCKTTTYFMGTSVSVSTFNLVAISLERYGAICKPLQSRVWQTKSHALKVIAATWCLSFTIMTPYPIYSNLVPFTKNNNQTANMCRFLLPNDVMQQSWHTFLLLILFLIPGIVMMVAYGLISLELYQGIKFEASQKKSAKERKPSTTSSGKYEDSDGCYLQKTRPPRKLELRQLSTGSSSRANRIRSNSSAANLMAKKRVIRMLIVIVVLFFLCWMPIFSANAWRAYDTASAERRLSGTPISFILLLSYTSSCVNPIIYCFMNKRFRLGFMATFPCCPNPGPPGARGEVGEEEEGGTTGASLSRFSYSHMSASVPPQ
In kind it is cell membranes, Membrane. To be noted: 1321-n1.

For assay [5], the target named is Tyrosine-protein kinase Fyn (Homo sapiens, UniProt P06241). In words: biochemical. The class given is cell-based, Insect cells. To be noted: insect cells.
Sequence of Tyrosine-protein kinase Fyn (P06241 whole entry): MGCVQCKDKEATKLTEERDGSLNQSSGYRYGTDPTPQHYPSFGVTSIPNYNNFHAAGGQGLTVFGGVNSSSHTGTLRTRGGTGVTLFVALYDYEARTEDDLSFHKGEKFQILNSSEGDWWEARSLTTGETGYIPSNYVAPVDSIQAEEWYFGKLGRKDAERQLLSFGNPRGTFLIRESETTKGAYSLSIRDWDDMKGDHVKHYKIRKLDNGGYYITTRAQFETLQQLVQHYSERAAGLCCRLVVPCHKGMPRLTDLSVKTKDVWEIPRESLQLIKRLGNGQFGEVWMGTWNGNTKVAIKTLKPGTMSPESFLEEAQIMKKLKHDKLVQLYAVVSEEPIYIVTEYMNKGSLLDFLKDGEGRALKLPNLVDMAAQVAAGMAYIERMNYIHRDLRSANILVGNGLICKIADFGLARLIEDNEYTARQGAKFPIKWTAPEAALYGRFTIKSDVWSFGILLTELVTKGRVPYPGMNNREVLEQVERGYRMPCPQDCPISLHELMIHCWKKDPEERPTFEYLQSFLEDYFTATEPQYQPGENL

Sequence of Melanocortin receptor 5 (P33032 whole entry): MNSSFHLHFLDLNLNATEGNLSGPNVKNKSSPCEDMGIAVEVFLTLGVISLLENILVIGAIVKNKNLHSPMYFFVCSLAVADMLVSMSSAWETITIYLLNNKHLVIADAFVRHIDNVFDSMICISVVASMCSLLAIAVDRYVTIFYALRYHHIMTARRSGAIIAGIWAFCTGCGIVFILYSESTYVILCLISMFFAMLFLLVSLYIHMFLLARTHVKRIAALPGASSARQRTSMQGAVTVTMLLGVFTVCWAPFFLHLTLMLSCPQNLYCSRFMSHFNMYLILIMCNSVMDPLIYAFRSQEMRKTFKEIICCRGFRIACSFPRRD

As for `CN(C)C(=O)Oc1cccc([N+](C)(C)C)c1.[Br-]` [NEOSTIGMINE BROMIDE], the concentration for half-maximal inhibition (IC50) result (against Melanocortin receptor 5; in assay [1]; in assay [2]; in assay [3]; against Interstitial collagenase; in assay [4]) was “Not Active” each time. For the same compound, the IC50 (as a rule, the concentration at which inhibition is half-maximal) in assay [5] was “Not Active”. The Ki entry in assay [1] is listed as “Not Active”.
Regarding `NC(=O)c1cccnc1` [NIACINAMIDE], the IC50 result (at Melanocortin receptor 5; in assay [1]; in assay [2]; in assay [3]; at Interstitial collagenase; in assay [4]) was “Not Active” throughout. The IC50 entry in assay [5] is on record as “Not Active”. Also, the Ki result in assay [1] is on record as “Not Active”.
For the compound `CS(=O)(=O)Nc1ccc([N+](=O)[O-])cc1Oc1ccccc1` [NIMESULIDE], the IC50 result at Melanocortin receptor 5 was “Not Active”; in assay [1] it was “Not Active”; in assay [2] it was “Not Active”; in assay [3], “Not Active”; on Interstitial collagenase (read-out: IC50) it was 23.3 µM; in assay [4] it was “Not Active”. Also, the IC50 result in assay [5] was “Not Active”. Further, the Ki result in assay [1] is recorded as “Not Active”.
For `CN1C(=O)CN=C(c2ccccc2)c2cc([N+](=O)[O-])ccc21` [NIMETAZEPAM], the IC50 entry (at Melanocortin receptor 5; in assay [1]; in assay [2]; in assay [3]; against Interstitial collagenase; in assay [4]) was “Not Active” throughout. For the same compound, the IC50 result in assay [5] is listed as “Not Active”. The Ki result in assay [1] is listed as “Not Active”.
Take `COc1ccc2c(c1OC)C(=O)O[C@@H]2[C@H]1c2c(cc3c(c2OC)OCO3)CCN1C` [NOSCAPINE]: the 50% inhibitory concentration (IC50) result (on Melanocortin receptor 5; in assay [1]; in assay [2]; in assay [3]; against Interstitial collagenase; in assay [4]) was “Not Active” each time. For the same compound, the 50% inhibitory concentration (IC50) entry in assay [5] is “Not Active”. In addition, in assay [1], the Ki entry was “Not Active”.
For the compound `C[C@@H]1O[C@@H](O[C@H]2C[C@@H](O)[C@]3(CO)[C@H]4[C@H](O)C[C@]5(C)[C@@H](C6=CC(=O)OC6)CC[C@]5(O)[C@@H]4CC[C@]3(O)C2)[C@H](O)[C@H](O)[C@H]1O` [OUABAIN], the concentration for half-maximal inhibition (IC50) entry (at Melanocortin receptor 5; in assay [1]; in assay [2]; in assay [3]; against Interstitial collagenase; in assay [4]) was “Not Active” each time. Also, the half-inhibitory concentration (IC50) result in assay [5] is reported as “Not Active”. The Ki entry in assay [1] is recorded as “Not Active”.
For `NC(=O)N1c2ccccc2CC(=O)c2ccccc21` [OXCARBAZEPINE], the IC50 result (at Melanocortin receptor 5; in assay [1]; in assay [2]; in assay [3]; against Interstitial collagenase; in assay [4]) was “Not Active” in each case. Moreover, the 50% inhibitory concentration (IC50) result in assay [5] is listed as “Not Active”. For the same compound, the Ki result in assay [1] is “Not Active”.
For the compound `COc1ccnc(C[S+]([O-])c2nc3ccc(OC(F)F)cc3[nH]2)c1OC` (stereo not given) [PANTOPRAZOLE], the concentration for half-maximal inhibition (IC50) result (at Melanocortin receptor 5; in assay [1]; in assay [2]; in assay [3]; on Interstitial collagenase; in assay [4]) was “Not Active” each time. In addition, in assay [5], the IC50 entry is on record as “Not Active”. In assay [1], the Ki entry was “Not Active”.
Regarding `N=C(N)c1ccc(OCCCCCOc2ccc(C(=N)N)cc2)cc1` [PENTAMIDINE], the half-maximal inhibitory concentration (IC50) entry (against Melanocortin receptor 5; in assay [1]; in assay [2]; in assay [3]; against Interstitial collagenase; in assay [4]) was “Not Active” throughout. For the same compound, the half-maximal inhibitory concentration (IC50) entry in assay [5] was “Not Active”. For the same compound, the Ki entry in assay [1] is recorded as “Not Active”.
Consider `NNCCc1ccccc1` [PHENELZINE], for which the IC50 result (against Melanocortin receptor 5; in assay [1]; in assay [2]; in assay [3]; at Interstitial collagenase; in assay [4]) was “Not Active” each time. Besides, the IC50 entry in assay [5] is “Not Active”. Besides, the Ki result in assay [1] is “Not Active”.
In the case of `CCc1ccc(CCOc2ccc(CC3SC(=O)NC3=O)cc2)nc1` (stereo not given) [PIOGLITAZONE], the IC50 entry (against Melanocortin receptor 5; in assay [1]; in assay [2]; in assay [3]; at Interstitial collagenase; in assay [4]) was “Not Active” each time. Moreover, the IC50 result in assay [5] is “Not Active”. In assay [1], the Ki entry was “Not Active”.
On to `CCCNC(C)C(=O)Nc1ccccc1C` (stereo not given) [PRILOCAINE], for which the concentration for half-maximal inhibition (IC50) entry (at Melanocortin receptor 5; in assay [1]; in assay [2]; in assay [3]; against Interstitial collagenase; in assay [4]) was “Not Active” in each case. Moreover, the concentration for half-maximal inhibition (IC50) result in assay [5] is recorded as “Not Active”. For the same compound, in assay [1], the Ki result was “Not Active”.
On to `CCN(CC)CCNC(=O)c1ccc(N)cc1` [PROCAINAMIDE], for which the IC50 result (on Melanocortin receptor 5; in assay [1]; in assay [2]; in assay [3]; at Interstitial collagenase; in assay [4]) was “Not Active” in each case. Besides, the IC50 result in assay [5] is given as “Not Active”. Besides, the Ki result in assay [1] is recorded as “Not Active”.
In the case of `CCN(CC)CCCC(C)Nc1c2ccc(Cl)cc2nc2ccc(OC)cc12` (stereo not given) [QUINACRINE], the IC50 entry (on Melanocortin receptor 5; in assay [1]; in assay [2]; in assay [3]; against Interstitial collagenase; in assay [4]) was “Not Active” each time. The IC50 entry in assay [5] is “Not Active”. The Ki entry in assay [1] is listed as “Not Active”.
As to `C[C@]12C=CC(=O)C=C1CC[C@H]1[C@@H]3C[C@@H](O)[C@](O)(C(=O)CO)[C@@]3(C)C[C@H](O)[C@@]12F` [TRIAMCINOLONE], the IC50 entry (at Melanocortin receptor 5; in assay [1]; in assay [2]; in assay [3]; against Interstitial collagenase; in assay [4]) was “Not Active” throughout. For the same compound, the IC50 result in assay [5] was “Not Active”. For the same compound, the Ki entry in assay [1] is “Not Active”.
